The values below come from patent publication US11155517B2, “4-substituted phenylamine derivatives and their use to protect crops by fighting undesired phytopathogenic micoorganisms” (PI INDUSTRIES LTD., priority 2016, dated 2021).

SMILES strings stand for the structures. Counter-ions that a name gives are not always drawn. Where only a bound is given, the exact number is not on record here.

Format in all cases: cell-based
One assay relates to Botrytis cinerea. Put plainly: Botrytis cinerea (gray mold) in vitro test, radial growth on Potato Dextrose Agar. Particulars: 168 h, 300 ppm, seven days, 22° C., read-out: % (control) compared to the untreated check (radial growth).
The test system of a further assay is Alternaria solani. The experiment in a line: Alternaria solani (early blight of tomato/potato) in vitro test, radial growth on Potato Dextrose Agar. Particulars: 168 h, 300 ppm, seven days, 25° C., read-out: % control compared to the untreated check (radial growth).
In a further assay the test system is Pyricularia oryzae. Put plainly: microbe, parasite or virus in culture. To be noted: 168 h, read-out: % control compared to the untreated check (radial growth).
The subject of another assay is Rhizoctonia solani. Put plainly: Rhizoctonia solani (rice sheath blight/potato black scurf) in vitro test, radial growth on Potato Dextrose Agar. To be noted: 168 h, 300 ppm, seven days, 25° C., read-out: % control compared to the untreated check (radial growth).

`CCN(C)C=Nc1cc(C(F)(F)F)c(Cc2cccc(OC(F)(F)F)c2)cc1F` [Compound 233, N-ethyl-N′-(2-fluoro-4-(3-(trifluoromethoxy)benzyl)-5-(trifluoromethyl)phenyl)-N-methylformimidamide]: the inhibition of growth at 300 ppm in the assay with Botrytis cinerea was > 80%; with Alternaria solani, > 75%; with Pyricularia oryzae, > 75%.

Regarding `CON(C)C=Nc1cc(C)c(Cc2ccccc2F)cc1C` [Compound 61, N′-(4-(2-fluorobenzyl)-2,5-dimethylphenyl)-N-methoxy-N-methylformimidamide], the figures for the inhibition of growth at 300 ppm in the assay with Alternaria solani, with Rhizoctonia solani and in the assay on Pyricularia oryzae were > 75%, > 80% and > 75%, respectively.

As for `CCN(C)C=Nc1cc(C)c(Cc2cccc(C)c2)cc1S(C)(=O)=O` [Compound 273, N-ethyl-N-methyl-N′-(5-methyl-4-(3-methylbenzyl)-2-(methylsulfonyl)phenyl)formimidamide], the inhibition of growth at 300 ppm in the assay with Botrytis cinerea was > 80%; in the assay with Alternaria solani it was > 75%; with Rhizoctonia solani, > 80%; in the assay with Pyricularia oryzae it was > 75%.

Turning to `CCN(C)C=Nc1cc(C)c(Cc2ccc(C)cc2)cc1S(C)(=O)=O` [Compound 235, N-ethyl-N-methyl-N′-(5-methyl-4-(4-methylbenzyl)-2-(methylsulfonyl)phenyl)formimidamide], in the assay on Botrytis cinerea, the inhibition of growth at 300 ppm is > 80%.

As for `CCN(C)C=Nc1cc(C)c(C(C#N)c2cccc(F)c2)cc1Cl` (stereo not shown) [Compound 194, N′-(2-chloro-4-(cyano(3-fluorophenyl)methyl)-5-methylphenyl)-N-ethyl-N-methylformimidamide], in the assay with Pyricularia oryzae, the inhibition of growth at 300 ppm is > 75%.

In the case of `CCN(C)C=Nc1cc(Cl)c(Cc2ccccc2Cl)cc1Cl` [Compound 150, N′-(2,5-dichloro-4-(2-chlorobenzyl)phenyl)-N-ethyl-N-methylformimidamide], the inhibition of growth at 300 ppm in the assay on Alternaria solani and with Pyricularia oryzae was > 75% in each case.

On to `CCN(C)C=Nc1cc(F)c(Cc2ccccc2F)cc1F` [Compound 242, N′-(2,5-difluoro-4-(2-fluorobenzyl)phenyl)-N-ethyl-N-methylformimidamide], for which the results for the inhibition of growth at 300 ppm with Botrytis cinerea, in the assay on Alternaria solani and in the assay on Pyricularia oryzae were > 80%, > 75% and > 75%, respectively.

`CCN(C)C=Nc1cc(C)c(C(C#N)c2ccc(Cl)cc2)cc1Cl` (stereo not shown) [Compound 193, N′-(2-chloro-4-((4-chlorophenyl)(cyano)methyl)-5-methylphenyl)-N-ethyl-N-methylformimidamide]: the inhibition of growth at 300 ppm in the assay with Botrytis cinerea was > 80%; with Rhizoctonia solani, > 80%; in the assay on Pyricularia oryzae, > 75%.

In the case of `CCN(C)C=Nc1cc(C(F)(F)F)c(Cc2ccccc2F)cc1F` [Compound 227, N-ethyl-N′-(2-fluoro-4-(2-fluorobenzyl)-5-(trifluoromethyl)phenyl)-N-methylformimidamide], the inhibition of growth at 300 ppm is > 75% with Alternaria solani, > 80% in the assay on Rhizoctonia solani and > 75% with Pyricularia oryzae.

Consider `CCN(C)C=Nc1cc(C)c(C(C#N)c2cccc(C(F)(F)F)c2)cc1Cl` (stereo not shown) [Compound 188, N′-(2-chloro-4-(cyano(3-(trifluoromethyl)phenyl)methyl)-5-methylphenyl)-N-ethyl-N-methylformimidamide], for which the inhibition of growth at 300 ppm in the assay on Botrytis cinerea is > 80%; with Pyricularia oryzae, > 75%.

In the case of `CCN(C)C=Nc1cc(C)c(C(C#N)c2ccc(F)c(Cl)c2)cc1Cl` (stereo not shown) [Compound 190, N′-(2-chloro-4-((3-chloro-4-fluorophenyl)(cyano)methyl)-5-methylphenyl)-N-ethyl-N-methylformimidamide], the inhibition of growth at 300 ppm with Botrytis cinerea was > 80%; with Pyricularia oryzae, > 75%.

In the case of `CCN(C)C=Nc1cc(C(F)(F)F)c(Cc2cccc(F)c2)cc1C1CC1` [Compound 266, N′-(2-cyclopropyl-4-(3-fluorobenzyl)-5-(trifluoromethyl)phenyl)-N-ethyl-N-methylformimidamide], the inhibition of growth at 300 ppm in the assay with Botrytis cinerea was > 80%; with Alternaria solani, > 75%; with Pyricularia oryzae, > 75%.

On to `CCN(C)C=Nc1cc(C)c(Cc2cccc(F)c2Cl)cc1Cl` [Compound 125, N′-(2-chloro-4-(2-chloro-3-fluorobenzyl)-5-methylphenyl)-N-ethyl-N-methylformimidamide], for which the inhibition of growth at 300 ppm in the assay with Alternaria solani and in the assay with Pyricularia oryzae was > 75% each time.

Turning to `CCN(C)C=Nc1cc(C)c(Cc2cccc(Cl)c2)cc1S(C)(=O)=O` [Compound 218, N′-(4-(3-chlorobenzyl)-5-methyl-2-(methylsulfonyl)phenyl)-N-ethyl-N-methylformimidamide], in the assay on Alternaria solani, the inhibition of growth at 300 ppm was > 75%.

Consider `C=C(c1ccc(Br)cc1)c1cc(C)c(N=CN(C)CC)cc1Cl` [Compound 238, N′-(4-(1-(4-bromophenyl)vinyl)-5-chloro-2-methylphenyl)-N-ethyl-N-methylformimidamide], for which the inhibition of growth at 300 ppm was > 80% with Botrytis cinerea, > 75% in the assay on Alternaria solani and > 75% in the assay on Pyricularia oryzae.

Turning to `Cc1cc(N=CN2CCOCC2)c(Cl)cc1Cc1cccc(F)c1` [Compound 38, N-(2-chloro-4-(3-fluorobenzyl)-5-methylphenyl)-1-morpholinomethanimine], the inhibition of growth at 300 ppm with Pyricularia oryzae was > 75%.

Take `CCN(C)C=Nc1cc(C)c(C(C#N)c2ccc(C(F)(F)F)cc2)cc1Cl` (stereo not shown) [Compound 187, N′-(2-chloro-4-(cyano(4-(trifluoromethyl)phenyl)methyl)-5-methylphenyl)-N-ethyl-N-methylformimidamide]: in the assay on Botrytis cinerea, the inhibition of growth at 300 ppm is > 80%.

Take `CCN(C)C=Nc1cc(C(F)(F)F)c(Cc2cccc(C)c2)cc1F` [Compound 231, N-ethyl-N′-(2-fluoro-4-(3-methylbenzyl)-5-(trifluoromethyl)phenyl)-N-methylformimidamide]: the inhibition of growth at 300 ppm was > 75% in the assay with Alternaria solani, > 80% in the assay with Rhizoctonia solani and > 75% in the assay on Pyricularia oryzae.

Turning to `CCN(C)C=Nc1c(C)cc(Cc2ccccc2C)c(C)c1Br` [Compound 219, N′-(2-bromo-3,6-dimethyl-4-(2-methylbenzyl)phenyl)-N-ethyl-N-methylformimidamide], the inhibition of growth at 300 ppm with Botrytis cinerea is > 80%; in the assay with Alternaria solani it was > 75%; in the assay with Pyricularia oryzae, > 75%.

`CCN(C)C=Nc1cc(C)c(C(C#N)c2ccc(C)cc2)cc1Cl` (stereo not shown) [Compound 191, N′-(2-chloro-4-(cyano(p-tolyl)methyl)-5-methylphenyl)-N-ethyl-N-methylformimidamide]: the inhibition of growth at 300 ppm in the assay with Botrytis cinerea and in the assay with Rhizoctonia solani was > 80% in each case.

Turning to `CCN(C)C=Nc1c(C)cc(C(F)(F)c2ccccc2)c(C)c1I` [Compound 73, N′-(4-(difluoro(phenyl)methyl)-2-iodo-3,6-dimethylphenyl)-N-ethyl-N-methylformimidamide], the inhibition of growth at 300 ppm in the assay on Pyricularia oryzae is > 75%.

`CCN(C)C=Nc1cc(C)c(Cc2cc(C(F)(F)F)cc(Cl)c2F)cc1Cl` [Compound 126, N′-(2-chloro-4-(3-chloro-2-fluoro-5-(trifluoromethyl)benzyl)-5-methylphenyl)-N-ethyl-N-methylformimidamide]: the inhibition of growth at 300 ppm with Alternaria solani and in the assay with Pyricularia oryzae was > 75% throughout.

As to `CCN(C)C=Nc1cc(Cl)c(Cc2ccc(C)cc2)cc1Cl` [Compound 147, N′-(2,5-dichloro-4-(4-methylbenzyl)phenyl)-N-ethyl-N-methylformimidamide], the inhibition of growth at 300 ppm with Alternaria solani is > 75%; with Rhizoctonia solani, > 80%.

Turning to `CCN(C)C=Nc1cc(C)c(Cc2ccccc2C)cc1S(C)(=O)=O` [Compound 234, N-ethyl-N-methyl-N′-(5-methyl-4-(2-methylbenzyl)-2-(methylsulfonyl)phenyl)formimidamide], the inhibition of growth at 300 ppm with Botrytis cinerea is > 80%; in the assay with Alternaria solani it was > 75%; in the assay on Pyricularia oryzae, > 75%.

As to `CCN(C)C=Nc1cc(C)c(C(C#N)c2cccc(C(F)(F)F)c2)cc1Cl` (stereo not shown) [Compound 272, N′-(2-chloro-4-(cyano(3-(trifluoromethyl)phenyl)methyl)-5-methylphenyl)-N-ethyl-N-methylformimidamide hydrochloride], the inhibition of growth at 300 ppm in the assay on Alternaria solani was > 75%.

As for `Cc1cc(N=CNC#N)c(C)cc1Cc1ccccc1Cl` [Compound 65, N′-(4-(2-chlorobenzyl)-2,5-dimethylphenyl)-N-cyanoformimidamide], in the assay on Botrytis cinerea, the inhibition of growth at 300 ppm was > 80%.

As for `CCN(C)C=Nc1cc(Cl)c(C(C(=O)OC)c2cccc(Cl)c2)cc1C` (stereo not shown) [Compound 237, methyl 2-(2-chloro-4-(((ethyl(methyl)amino)methylene)amino)-5-methylphenyl)-2-(3-chlorophenyl)acetate], the inhibition of growth at 300 ppm with Alternaria solani and in the assay with Pyricularia oryzae was > 75% each time.

For `CCN(C)C=Nc1cc(C)c(Cc2ccccn2)cc1C` [Compound 202, N′-(2,5-dimethyl-4-(pyridin-2-ylmethyl)phenyl)-N-ethyl-N-methylformimidamide], the inhibition of growth at 300 ppm in the assay with Alternaria solani and in the assay with Pyricularia oryzae was > 75% throughout.

For the compound `CCN(C)C=Nc1cc(C(F)(F)F)c(Cc2ccccc2Cl)cc1F` [Compound 226, N′-(4-(2-chlorobenzyl)-2-fluoro-5-(trifluoromethyl)phenyl)-N-ethyl-N-methylformimidamide], the inhibition of growth at 300 ppm with Alternaria solani is > 75%; in the assay on Rhizoctonia solani, > 80%; in the assay on Pyricularia oryzae, > 75%.

Consider `COC=Nc1c(C)cc(Cc2ccc(Br)cc2)c(C)c1Br` [Compound 217, methyl N-(2-bromo-4-(4-bromobenzyl)-3,6-dimethylphenyl)formimidate], for which the inhibition of growth at 300 ppm with Botrytis cinerea was > 80%.
